Test results as given in patent US6911445B2, “Antidepressant cycloalkylamine derivatives of heterocycle-fused benzodioxans” (Wyeth, priority 2002, dated 2005).
Structures can show the parent of a compound that is named as a salt.

How the values were obtained:
serotonin transporter = target: T1, serotonin transporter (Rattus norvegicus, UniProt P31652); experiment: Displacement of 3H-paroxetine from male rat frontal cortical membranes (serotonin transporter affinity); format: binding; conditions: read-out: 5-HT Transporter Affinity Ki
T1 construct: displace ^3H-paroxetine from male rat frontal cortical membranes; from tissue; host or cells: male rat frontal cortex membranes
T1 sequence (P31652 whole entry): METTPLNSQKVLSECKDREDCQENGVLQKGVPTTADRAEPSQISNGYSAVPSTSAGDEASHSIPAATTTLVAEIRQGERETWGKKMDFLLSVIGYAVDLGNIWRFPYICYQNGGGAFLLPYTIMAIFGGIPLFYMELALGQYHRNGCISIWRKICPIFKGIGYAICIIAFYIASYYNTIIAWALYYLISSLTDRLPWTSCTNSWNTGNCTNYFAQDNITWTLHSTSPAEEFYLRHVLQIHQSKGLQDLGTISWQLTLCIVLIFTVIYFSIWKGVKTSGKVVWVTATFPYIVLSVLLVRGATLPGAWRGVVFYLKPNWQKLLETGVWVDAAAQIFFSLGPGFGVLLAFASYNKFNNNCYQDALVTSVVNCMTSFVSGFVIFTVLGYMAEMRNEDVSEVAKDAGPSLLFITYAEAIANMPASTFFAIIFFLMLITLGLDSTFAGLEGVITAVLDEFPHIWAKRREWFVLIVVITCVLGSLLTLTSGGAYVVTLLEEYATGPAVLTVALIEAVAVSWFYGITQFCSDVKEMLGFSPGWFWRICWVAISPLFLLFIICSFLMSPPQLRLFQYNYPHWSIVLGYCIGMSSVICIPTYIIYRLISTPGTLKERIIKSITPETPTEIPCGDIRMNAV

[1] = target: T2, cloned human 5HT1A receptors (Homo sapiens, UniProt P08908); experiment: 35S-GTPγS binding assay, membranes containing cloned human 5HT1A receptors; format: biochemical; conditions: for IC50: antagonist potency, reversal of the standard agonist 8-OH-DPAT, read-out: 5HT1A Function IC50; for 5HT1A Function (Imax): maximum inhibitory effect, value in parentheses
T2 construct: expressed in transfected cells
T2 sequence (P08908 1-422): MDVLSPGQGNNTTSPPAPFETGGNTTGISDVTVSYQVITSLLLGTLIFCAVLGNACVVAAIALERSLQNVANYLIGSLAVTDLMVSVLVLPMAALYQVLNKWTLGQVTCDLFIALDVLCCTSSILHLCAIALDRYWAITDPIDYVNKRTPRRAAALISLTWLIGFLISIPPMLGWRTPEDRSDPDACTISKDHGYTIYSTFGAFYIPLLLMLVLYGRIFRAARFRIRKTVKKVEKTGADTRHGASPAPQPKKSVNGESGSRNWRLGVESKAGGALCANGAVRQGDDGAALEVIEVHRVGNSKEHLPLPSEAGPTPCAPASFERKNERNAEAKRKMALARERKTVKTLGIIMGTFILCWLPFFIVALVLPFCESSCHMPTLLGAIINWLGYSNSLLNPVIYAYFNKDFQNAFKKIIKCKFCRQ
Protocol: Antagonist activity at 5HT1A receptors was established by using a ^35S-GTPγS binding assay similar to that used by Lazareno and Birdsall (Br. J. Pharmacol. 109:1120, 1993), in which the test compound's ability to affect the binding of ^35S-GTPγS to membranes containing cloned human 5HT1A receptors was determined. Agonists produce an increase in binding whereas antagonists produce no increase but rather reverse the effects of the standard agonist 8-OH-DPAT. The test compound's maximum inhibitory effect is represented as the Imax, while its potency is defined by the IC50.

human 5HT1A receptors = target: T3, human 5HT1A receptors (Homo sapiens, UniProt P08908); experiment: Displacement of [3H] 8-OH-DPAT from 5HT1A receptor in stably transfected CHO cells; format: binding; conditions: CHO cells with human 5HT1A receptors, read-out: 5HT1A Receptor Affinity Ki
T3 construct: expressed in transfected cells; host or cells: CHO cells
T3 sequence (P08908 1-422): T2 sequence (P08908 1-422)
Source text: High affinity for the serotonin 5HT1A receptor was established by testing the claimed compound's ability to displace [^3H] 8-OH-DPAT (dipropylamino-tetralin) from the 5HT1A serotonin receptor following a modification of the procedure of Hall, et al., J. Neurochem. 44, 1685 (1985), which utilizes CHO cells stably transfected with human 5HT1A receptors.

| SMILES | Ki (serotonin transporter) [nM] | IC50 [1] [nM] | 5HT1A Function (Imax) [1] [%] | melting point | Ki (human 5HT1A receptors) [nM] | EC50 ([1]; given as EC50, increase in 35S-GTPγS binding (agonist), read-out: 5HT1A Function EC50) [nM] | Emax ([1]; given as Emax, agonist effect, read-out: 5HT1A Function Emax) [%] |
| --- | --- | --- | --- | --- | --- | --- | --- |
| Cc1nc2ccc3c(c2o1)O[C@@H](CN[C@H]1CC[C@@H](c2c[nH]c4ccc(F)cc24)C1)CO3 (mixture of isomers) [Example 11, N-[(cis)-3-(5-Fluoro-1H-indol-3-yl)cyclopentyl]-N-{[(8S)-2-methyl-7,8-dihydro[1,4]dioxino[2,3-g][1,3]benzoxazol-8-yl]methyl}amine] | 1.46 | 274 | 100 | 79 to 82 °C | 16.4 | – | – |
| Cc1nc2ccc3c(c2o1)O[C@@H](CN[C@H]1CC[C@@H](c2c[nH]c4ccc(F)cc42)CC1)CO3 [Example 12] | 11 | – | – | 80 to 82 °C | 84.4 | – | – |
| Cc1ccc2c3c(ccc2n1)OC[C@H](CN(C)[C@@H]1CC[C@H](c2c[nH]c4ccc(F)cc24)C1)O3 (relative stereo) [Example 13, N-[(1R*,3S*)-3-(5-fluoro-1H-indol-3-yl)cyclopentyl]-N-methyl-N-{[(2S)-8-methyl-2,3-dihydro[1,4]dioxino[2,3-f]quinolin-2-yl]methyl}amine] | 5.45 | 494 | 100 | – | 18.8 | – | – |
| Cc1ccc2c3c(ccc2n1)OCC(CNC1CCC(c2cn(C)c4ccc(F)cc24)C1)O3 (single isomer, unassigned) (as salt: fumarate) [Example 5] | – | – | – | 200 to 201 °C | – | – | – |
| Cc1ccc2c3c(ccc2n1)OC[C@H](CN[C@H]1CC[C@H](c2c[nH]c4ccc(F)cc42)CC1)O3 [Example 8, (trans)-N-[4-(5-fluoro-1H-indol-3-yl)cyclohexyl]-N-{[(2S)-8-methyl-2,3-dihydro[1,4]dioxino[2,3-f]quinolin-2-yl]methyl}amine] | 4.16 | – | – | – | 14.6 | 66 | 95 |
| Cc1ccc2c3c(ccc2n1)OCC(CNC1CCC(c2cn(C)c4ccc(F)cc24)C1)O3 (single isomer, unassigned) [Example 5] | 3.69 | 142 | 69 | – | 5.35 | – | – |
| Cc1ccc2c3c(ccc2n1)OC[C@H](CN(C)[C@H]1CC[C@@H](c2c[nH]c4ccc(F)cc24)C1)O3 (mixture of isomers) [Example 9, N-[(cis)-3-(5-fluoro-1H-indol-3-yl)cyclopentyl]-N-methyl-N-{[(2S)-8-methyl-2,3-dihydro[1,4]dioxino[2,3-f]quinolin-2-yl]methyl}amine] | 0.84 | 242 | 100 | – | 5.01 | – | – |
| Cc1ccc2c3c(ccc2n1)OCC(CNC1CCC(c2cn(C)c4ccc(F)cc24)C1)O3 (single isomer, unassigned) [Example 5-Isomer A, N-[(1R*,3S*)-3-(5-fluoro-1-methyl-1H-indol-3-yl)cyclopentyl]-N-{](2S)-8-methyl-2,3-dihydro[1,41]dioxino[2,3-f]quinoli-2-yl]methyl}amine] | 2.11 | 190 | 88 | – | 12.5 | – | – |
| Cc1ccc2c3c(ccc2n1)OCC(CNC1CCC(c2cn(C)c4ccc(F)cc24)C1)O3 (single isomer, unassigned) [Example 6] | 1.67 | 228 | 55 | – | 20.3 | – | – |
| Cc1ccc2c3c(ccc2n1)OC[C@H](CN[C@H]1CC[C@@H](c2c[nH]c4ccc(F)cc24)C1)O3 (mixture of isomers) (as salt: HCl) (hydrate or solvate) [Example 3, N-[(cis)-3-(5-fluoro-1H-indol-3-yl)cyclopentyl]-N-{[(2S)-8-methyl-2,3-dihydro[1,4]dioxino[2,3-f]quinolin-2-yl]methyl}amine] | – | – | – | 234 to 235 °C | – | – | – |
| Cc1ccc2c3c(ccc2n1)OCC(CNC1CCC(c2cn(C)c4ccc(F)cc24)C1)O3 (single isomer, unassigned) [Example 5-Isomer B, N-[(1S*,3R*)-3-(5-fluoro-1-methyl-1H-indol-3-yl)cyclopentyl]-N-{[(2S)-8-methyl-2,3-dihydro[1,4]dioxino[2,3-f]quinoli-2-yl]methyl}amine] | 3 | 158 | 97 | – | 1.91 | – | – |
| Cc1ccc2c3c(ccc2n1)OC[C@H](CN(C)[C@@H]1CC[C@H](c2c[nH]c4ccc(F)cc24)C1)O3 (relative stereo) (as salt: fumarate) [Example 13, N-[(1R*,3S*)-3-(5-fluoro-1H-indol-3-yl)cyclopentyl]-N-methyl-N-{[(2S)-8-methyl-2,3-dihydro[1,4]dioxino[2,3-f]quinolin-2-yl]methyl}amine] | – | – | – | 198 to 199 °C (dec.) | – | – | – |
| Cc1nc2ccc3c(c2o1)O[C@@H](CN[C@H]1CC[C@H](c2c[nH]c4ccc(F)cc24)C1)CO3 (mixture of isomers) [Example 10, N-[(trans)-3-(5-Fluoro-1H-indol-3-yl)cyclopentyl]-N-{[(8S)-2-methyl-7,8-dihydro[1,4]dioxino[2,3-g][1,3]benzoxazol-8-yl]methyl}amine] | 1.38 | 172 | 85 | 79 to 82 °C | 28.6 | – | – |
